Assay results published in paper PMC6599804, “N^ɛ-acetyl lysine derivatives with zinc binding groups as novel HDAC inhibitors” (Royal Society Open Science, 2019).
Like-named read-outs stand apart in the source and are kept apart here.

How the values were obtained:
[1] = test system: cellular HDACs in K562 cells; test: Western blotting of acetylation levels of histone H3 and α-tubulin in K562 cells; type: cell-based, human; conditions: 50, 100 and 200 µM for 24 h
Procedure: (§1) Therefore, hydroxamic acid 18c was engaged in western blotting analysis to evaluate the acetylation levels of histone H3 and α-tubulin.
(§2) Figure 3. […]
(§3) a Microplate to determine the cell viability. The absorbance was directly proportional to the number of viable cells. All experiments were done in triplicate. […]
(§4) calculate and compare their selective index.
(§5) Respectively, A549 and K562 cells were harvested with three different concentrations of […]
(§6) DMEM with 10% FBS (fetal bovine serum) for 24 hours. DMSO was used as the control. Later the cell pellets were collected by centrifuge at 1000 rpm for 5 minutes and then washed by ice-cold PBS (phosphate-buffered saline) twice. The PBS solution was drained and the cell pellets were re-suspended with ice-cold cell lysate buffer (50 mM Tis-HCl PH=7.4, 150 mM NaCl, 1 mM EDTA, 10% glycerin, 1% tirtion 100 and protease inhibitors cocktail) and Vortex blending five times for 30 seconds each over a period of 30 minutes kept on ice. The samples were later centrifuged at 12,000×g for 10 minutes at 4 °C and the supernatants in each tube were collected and placed in a fresh tube kept on ice. BCA (bicinchoninic acid) assay was used to determine the total protein amount. […]
(§7) were removed by washing and a secondary antibody conjugated to an enzyme, a fluorophore was used for detection. The detected signal from the protein: antibody: antibody complex was […]

[2] = test system: HepG2 cells; test: MTS cell proliferation assay, HepG2; type: cell-based, human
Procedure: (§8) Because of the great anti-tumour potential of HDAC inhibitors, we did the antiproliferative evaluation of 18c against K562 cells, A549 cells and HepG2 cells using MTS assay as previously described. […]
(§9) The rate of cell survival under the action of test substances was evaluated by an improved MTS assay as previously described. In brief, A549 (5000 cells / well) , HepG2 (5000 cells / well), HEK293 (5000 cells / well) and K562 (1 ×10^4 cells/well) cell lines were seeded into 96-well plates in 100 µL medium. After overnight incubation, each well was added with different […]
(§10) 48 hours 5ul of MTS reagent solution was added into each well and the cells were incubated for another 4 hours at 37℃ under 5% CO2 environment. The absorbance was measured at 490 nm in […]
as §3
(§11) calculate and compare their selective index. […]
(§12) Unbound antibodies

[3] = test system: A549 cells; test: MTS cell proliferation assay, A549; type: cell-based, human
Procedure: as §8, §9, §10, §3, §11, §12

[4] = test system: K562 cells; test: MTS cell proliferation assay, K562; type: cell-based, human
Procedure: as §8, §9, §10, §3, §11, §12

[5] = test system: HDACs (HeLa nuclear extract); test: HDAC deacetylation inhibition assay, HeLa nuclear extract with BOC-Ac-Lys-AMC substrate; type: biochemical, human
Procedure: With these N^ɛ-acetyl lysine derivatives in hand (schemes 1–3), we then did the pilot screening for general HDAC inhibitory activity at a compound's concentration of 100 µM. All tested compounds were subjected to the inhibition assay against the HDAC deacetylation reaction by using a HeLa nuclear extract as a source of HDACs and BOC-Ac-Lys-AMC as a substrate.
HDACS inhibition assay in vitro
In vitro HDACs inhibition assays were conducted as previously described. In brief, 4 μL of […]
(1μL), then fluorogenic substrate Boc-Lys(acetyl)-AMC (100 μM) and Buffer A (50 mM Tis-HCl pH=8.0, 150 mM NaCl, 30 mM KCl, 10 mM MgCl2) were added. After incubation at 37℃ for 1h, […]
(§13) And then incubation at 37℃ for 1h, the mixture was stopped by the addition of 50 μL of Buffer B (200mM HCl/300 mM Acetic acid), fluorescence intensity was measured using a microplate reader at excitation and emission wavelengths of 360 nm and 460 nm. The inhibition ratios were calculated from the fluorescence intensity readings of tested wells relative to those of control wells, […]
regression analysis of the concentration/inhibition data. All experiments were done in triplicate. […]

[6] = test system: HDACⅠ; test: HDAC subtype selectivity assay with subtype substrate, HDACⅠ; type: biochemical, human; conditions: 1μM; Hela nuclear extract; substrate of corresponding subtype
From the text: (§14) against both tumor cells and normal cells, then calculate and compare their selective index.” […]
(§15) of Supporting Information.
(§16) Reponses to Reviewer 2’s comments
(§17) Reviewer 2 is also very positive about the manuscript. We thank the reviewer for the helpful comments and careful reading of the manuscript. Our changes and/or responses are detailed below.
(§18) Comment 1: “Should add some discussion about whether the synthesized compounds intend to be pan- or specific- HDAC inhibitors.”
(§19) S1 of Supporting Information.
(§20) Comment 2: “ The cellular data is just described for the acetylation level of tubulin which is only relevant […]
as §13
(§21) The rate of cell survival under the action of test substances was evaluated by an improved MTS assay as previously described. […]
as §10

[7] = test system: HEK293; test: MTS cell proliferation assay, HEK293 (non-cancerous kidney cell); type: cell-based
Procedure: as §8, §9, §10, §3, §11, §12

[8] = target: T1, HDAC8 (Homo sapiens, UniProt Q9BY41); test: HDAC subtype selectivity assay with subtype substrate, HDAC8; type: biochemical; conditions: 1μM; Hela nuclear extract; substrate of corresponding subtype; read-out: HDAC Inhibition (%) HDAC8
T1 construct: Hela nuclear extract; endogenous in cells; host or cells: HeLa nuclear extract
T1 sequence (Q9BY41 1-377): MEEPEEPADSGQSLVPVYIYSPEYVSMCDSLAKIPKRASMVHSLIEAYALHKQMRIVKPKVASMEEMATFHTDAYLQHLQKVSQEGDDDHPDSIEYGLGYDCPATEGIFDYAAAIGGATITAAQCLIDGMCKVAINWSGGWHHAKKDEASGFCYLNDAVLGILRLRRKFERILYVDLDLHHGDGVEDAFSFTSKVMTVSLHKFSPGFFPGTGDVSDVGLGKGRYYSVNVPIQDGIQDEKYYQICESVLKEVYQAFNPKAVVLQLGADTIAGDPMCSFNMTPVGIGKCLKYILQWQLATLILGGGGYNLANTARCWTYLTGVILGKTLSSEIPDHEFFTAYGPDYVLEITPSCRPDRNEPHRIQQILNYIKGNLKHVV

[9] = test system: cellular HDACs in A549 cells; test: Western blotting of acetylation levels of histone H3 and α-tubulin in A549 cells; type: cell-based, human; conditions: 50, 100 and 200 µM for 24 h
Procedure: as §1, §2, §3, §4, §5, §6, §7

[10] = test system: HDACⅡa; test: HDAC subtype selectivity assay with subtype substrate, HDACⅡa; type: biochemical, human; conditions: 1μM; Hela nuclear extract; substrate of corresponding subtype
From the text: as §14, §15, §16, §17, §18, §19, §20, §13, §21, §10

[11] = Homo sapiens, MTS assay, 48 hours
[12] = concentration range of 10–500 µM, MTS

- IC50 [2, 11]: 158 ± 2.2 µM
- IC50 [3, 11]: 134 ± 2.13 µM
- IC50 [4, 11]: 41.2 ± 1.73 µM
- IC50 ([5]; BOC-Ac-Lys-AMC substrate, read-out: IC50 values, HeLa nuclear extract): 0.5 ± 0.21 µM
- IC50 ([5]; as restated in the conclusion, read-out: IC50 value): ~0.5 µM
- inhibition at 1 µM [8]: 38.3 ± 1.22%
Compound: O=C(CCCCCCC(=O)NCCCC[C@H](NC(=O)OCc1ccccc1)C(=O)Nc1ccccc1)NO [Compound 18c]
- acetylation levels of histone H3 and α-tubulin [1]: dose-dependent increase
- concentration showing antiproliferative activity comparable to SAHA (1) at 10 µM ([2]; MTS): 200 µM
- antiproliferative activity [2, 12]: dose-dependent manner
- concentration showing antiproliferative activity comparable to SAHA (1) at 10 µM ([3]; MTS): 50 to 100 µM
- antiproliferative activity [3, 12]: dose-dependent manner
- concentration showing antiproliferative activity comparable to SAHA (1) at 10 µM ([4]; MTS): 50 to 100 µM
- antiproliferative activity [4, 12]: dose-dependent manner
- HDAC inhibition (%) ([5]; compound at 100 µM, BOC-Ac-Lys-AMC substrate): 109.2 ± 0.5%
- HDAC Inhibition (%) HDACⅠ [6]: 61.06±1.064%
- IC50 ([7]; Homo sapiens, HEK293, MTS assay, 48 hours, normal cells): > 500 µM
- selectivity index (SI) ([7]; normal cells (HEK293) versus tumor cells (K562, A549, HepG2) IC50s): 3.16~12.14
- toxicity in non-cancerous kidney cell (HEK293) compared with SAHA (1) ([7]; same concentrations (5 µM and 10 µM), MTS): less toxicity
- acetylation levels of histone H3 and α-tubulin [9]: dose-dependent increase
- HDAC Inhibition (%) HDACⅡa [10]: 16.65±2.690%
